Publication PMC5750218, “Protein-inspired antibiotics active against vancomycin- and daptomycin-resistant bacteria” (Nature Communications, 2018)
≈ marks a conversion by molar mass, not a printed value.

Experiments:
[1] = system: Methicillin-resistant S. aureus ATCC 43300; test: microbe, parasite or virus in culture; conditions: ATCC 43300, 24 h
In short: (§1)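 Broth microdilution in Mueller Hinton broth with twofold serial dilutions of compound from 8 to 0.003 µg mL^−1.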

[2] = system: Multi-drug-resistant S. pneumoniae ATCC 700677; test: microbe, parasite or virus in culture; conditions: ATCC 700677
In short: as §1

[3] = system: Vancomycin-intermediate S. aureus NRS1; test: microbe, parasite or virus in culture; conditions: Vancomycin-intermediate NRS1
In short: as §1

[4] = system: Vancomycin-resistant (VanA) Enterococcus faecium ATCC 51559; test: microbe, parasite or virus in culture; conditions: ATCC 51559
In short: as §1

Cytotoxicity MTT assay [5] = format: cell-based, human; conditions: human
Description: Compound cytotoxicity was evaluated against HepG2 (ATCC-®HB-8065 liver hepatoceullular carcinoma) and HEK293 (ATCC®CRL-1573, embryonic kidney) human cell lines using standard (3-(4,5-dimethylthiazol-2-yl)−2,5-diphenyltetrazolium bromide (MTT) assay protocol with slight changes. In brief, HepG2 and HEK293 cells (assessed annually for mycoplasma contamination) were seeded as 1.5 × 10^4 cells per well in a clear 96-well tissue culture treated plate in a final volume of 100 μL in Dulbecco’s Modified Eagle Medium (DMEM)(GIBCO-Invitrogen #11995-073), in which 1% of FBS was added. Cells were incubated for 24 h at 37 °C, 5% CO2 to allow cells to attach to the plates. […] After the incubation, 0.4 mg mL^−1 MTT (3-(4,5-dimethylthiazol-2-yl)−2,5-diphenyltetrazolium bromide) (Invitrogen) was added to each well. The plates were then incubated for 2 h at 37 °C, 5% CO2. The media was removed, and purple formazan crystals were resuspended in 60 μL of DMSO. The absorbance was read at 570 nm using a Polarstar Omega plate reader. The data was then analysed by Prism software. Results are presented as the average percentage of control ± S.D. for each set of duplicate wells using the following equation: percent viability = (ABSTEST – ABSPOSITIVE CTRL / ABSUNTREATED –ABS POSITIVE CTRL)×100.

Cytotoxicity MTT assay [6] = format: cell-based, human; conditions: human; remark: listed apart in the source
Description: Compound cytotoxicity was evaluated against HepG2 (ATCC-®HB-8065 liver hepatoceullular carcinoma) and HEK293 (ATCC®CRL-1573, embryonic kidney) human cell lines using standard (3-(4,5-dimethylthiazol-2-yl)−2,5-diphenyltetrazolium bromide (MTT) assay protocol with slight changes. In brief, HepG2 and HEK293 cells (assessed annually for mycoplasma contamination) were seeded as 1.5 × 10^4 cells per well in a clear 96-well tissue culture treated plate in a final volume of 100 μL in Dulbecco’s Modified Eagle Medium (DMEM)(GIBCO-Invitrogen #11995-073), in which 1% of FBS was added. Cells were incubated for 24 h at 37 °C, 5% CO2 to allow cells to attach to the plates. Compounds prepared at 100 µM to 0.046 µM in threefold dilutions were added into each well and incubated for 24 h at 37 °C, 5% CO2. After the incubation, 0.4 mg mL^−1 MTT (3-(4,5-dimethylthiazol-2-yl)−2,5-diphenyltetrazolium bromide) (Invitrogen) was added to each well. The plates were then incubated for 2 h at 37 °C, 5% CO2. The media was removed, and purple formazan crystals were resuspended in 60 μL of DMSO. The absorbance was read at 570 nm using a Polarstar Omega plate reader. The data was then analysed by Prism software. Results are presented as the average percentage of control ± S.D. for each set of duplicate wells using the following equation: percent viability = (ABSTEST – ABSPOSITIVE CTRL / ABSUNTREATED –ABS POSITIVE CTRL)×100.

[7] = system: Vancomycin-resistant S. aureus NARSA VRS4; test: microbe, parasite or virus in culture; format: cell-based, Staphylococcus aureus; conditions: Vancomycin-resistant NARSA VRS4

SMILES | MIC MRSA [1] [µg/mL] | MIC MDR S.P. [2] [µg/mL] | MIC VISA [3] [µg/mL] | MIC VRE [4] [µg/mL] | CC50 at 24 h (Cytotoxicity MTT assay [5]) [µM] | CC50 at 24 h (Cytotoxicity MTT assay [6]) [µM] | MIC VRSA [7] [µg/mL]
CCCCCCCCCCCCCC(=O)NCC(=O)N[C@@H](CO)C(=O)N[C@@H](CO)C(=O)N[C@@H](CCCCN)C(=O)N[C@@H](CO)C(=O)N1CCC[C@H]1C(=O)N[C@@H](CO)C(=O)N[C@@H](CCCCN)C(=O)N[C@@H](CCCCN)C(=O)N[C@@H](CCCCN)C(=O)N1CCC[C@H]1C(=O)NCC(=O)N[C@@H](CC(=O)O)C(=O)N[C@@H](CSSCCNC(=O)[C@H]1NC(=O)[C@H]2NC(=O)[C@H](NC(=O)[C@@H]3NC(=O)[C@H](CC(N)=O)NC(=O)[C@H](NC(=O)[C@@H](CC(C)C)NC)[C@H](O)c4ccc(c(Cl)c4)Oc4cc3cc(c4O[C@@H]3O[C@H](CO)[C@@H](O)[C@H](O)[C@H]3O[C@H]3C[C@](C)(N)[C@H](O)[C@H](C)O3)Oc3ccc(cc3Cl)[C@H]2O)c2ccc(O)c(c2)-c2c(O)cc(O)cc21)C(N)=O [Compound 11] | 0.16 (≈ 0.0513 µM) | 0.09 (≈ 0.0288 µM) | 0.5 (≈ 0.16 µM) | 0.125 (≈ 0.04 µM) | 9 | 18 | 
CCCCCCCCCCCCCC(=O)NCC(=O)N[C@@H](CO)C(=O)N[C@@H](CO)C(=O)N[C@@H](CCCCN)C(=O)N[C@@H](CO)C(=O)N1CCC[C@H]1C(=O)N[C@@H](CO)C(=O)N[C@@H](CCCCN)C(=O)N[C@@H](CCCCN)C(=O)N[C@@H](CCCCN)C(=O)N1CCC[C@H]1C(=O)N[C@@H](CSSCCNC(=O)[C@H]1NC(=O)[C@H]2NC(=O)[C@H](NC(=O)[C@@H]3NC(=O)[C@H](CC(N)=O)NC(=O)[C@H](NC(=O)[C@@H](CC(C)C)NC)[C@H](O)c4ccc(c(Cl)c4)Oc4cc3cc(c4O[C@@H]3O[C@H](CO)[C@@H](O)[C@H](O)[C@H]3O[C@H]3C[C@](C)(N)[C@H](O)[C@H](C)O3)Oc3ccc(cc3Cl)[C@H]2O)c2ccc(O)c(c2)-c2c(O)cc(O)cc21)C(N)=O [Compound 12] | 0.09 (≈ 0.0305 µM) | 0.06 (≈ 0.0203 µM) | 0.5 (≈ 0.17 µM) | 0.007 (≈ 0.00237 µM) | 26 | 41 | 
CCCCCCCCCC(=O)N[C@@H](CCCCN)C(=O)N[C@@H](CCCCN)C(=O)N[C@@H](CCCCN)C(=O)N[C@@H](CCCCNC(=O)[C@H]1NC(=O)[C@H]2NC(=O)[C@H](NC(=O)[C@@H]3NC(=O)[C@H](CC(N)=O)NC(=O)[C@H](NC(=O)[C@@H](CC(C)C)NC)[C@H](O)c4ccc(c(Cl)c4)Oc4cc3cc(c4O[C@@H]3O[C@H](CO)[C@@H](O)[C@H](O)[C@H]3O[C@H]3C[C@](C)(N)[C@H](O)[C@H](C)O3)Oc3ccc(cc3Cl)[C@H]2O)c2ccc(O)c(c2)-c2c(O)cc(O)cc21)C(=O)O [Compound 36, nC9CO-KKK-K(Vancomycin)-OH] | 0.06 (≈ 0.0284 µM) | 0.06 (≈ 0.0284 µM) | 0.75 (≈ 0.354 µM) | 8 (≈ 3.78 µM) |  |  | 0.75 (≈ 0.354 µM)
CCCCCCCCCCCC(=O)N[C@@H](CCCCN)C(=O)N[C@@H](CCCCN)C(=O)N[C@@H](CCCCN)C(=O)N[C@@H](CCCCNC(=O)[C@H]1NC(=O)[C@H]2NC(=O)[C@H](NC(=O)[C@@H]3NC(=O)[C@H](CC(N)=O)NC(=O)[C@H](NC(=O)[C@@H](CC(C)C)NC)[C@H](O)c4ccc(c(Cl)c4)Oc4cc3cc(c4O[C@@H]3O[C@H](CO)[C@@H](O)[C@H](O)[C@H]3O[C@H]3C[C@](C)(N)[C@H](O)[C@H](C)O3)Oc3ccc(cc3Cl)[C@H]2O)c2ccc(O)c(c2)-c2c(O)cc(O)cc21)C(=O)O [Compound 37, nC11CO-KKK-K(Vancomycin)-OH] | 0.005 (≈ 0.00233 µM) | <0.003 | 0.06 (≈ 0.028 µM) | 0.5 (≈ 0.233 µM) |  |  | 0.75 (≈ 0.35 µM)
